Results from patent US10537552B2, “Substituted 5-hydroxyoxindoles and their use as analgesics and fever reducers” (CARAFE DRUG INNOVATION, LLC, priority 2015, dated 2020).
Values joined by “and” are separate entries in the source; they are usually repeats but may differ in a detail not shown here. Equal values may be shown once.

Key:
COX1 (h) = biological target: T1, COX1 (h) (Homo sapiens, UniProt P23219); assay: COX1 enzyme assay; format: biochemical
T1 construct: host or cells: Sf9 cells
Protocol: The assay was performed according to the procedure described in Glaser, European Journal of Pharmacology, 281:107-111, 1995, which is incorporated by reference. Recombinant enzymes were reconstituted in buffer. The enzyme preparations were preincubated with DMSO vehicle or compounds in DMSO for 5 min at 37° C. and the human recombinant enzyme expressed in Sf9 cells.
An inhibition greater than about 50% represented significant effects of the test compound. An inhibition of about 25% to about 50% was indicative of weak to moderate effects. An inhibition less than about 25% are not considered significant and may be primarily attributable to variability of the signal around the control level.

[1] = system: acetic acid-induced writhing responses; assay: acetic acid writhing test (abdominal irritant test), Example 10; format: in vivo, C57/B16 mice
Protocol: This example compares the antinociception (animal equivalent of analgesia) produced by the oral administration of 5-hydroxy-7-methyloxindole vs. acetaminophen. Initial studies were performed using 10% DMSO/Cremophor™ as the vehicle. To enable a comparison with other datasets, 5-hydroxy-7-methyloxindole was subsequently tested using 6% Tween 20® reagent as the vehicle.
Male C57/B16 mice (Taconic), 8 weeks of age, were used in this study. The mice were received at Drexel University at least one week prior to testing and housed in standard polycarbonate cages with filter tops. Experiments were done in accordance with the guidelines of the National Institutes of Health and with the guidelines of the Committee for Research and Ethical Issues of IASP and were approved by the Animal Care and Use Committee of Drexel University College of Medicine. Four to five animals were housed per cage and food and water were provided ad libitum. Prior to initiation of the study, the animals were examined to assure adequate health and suitability. Mice were maintained on a 12/12 light/dark cycle and room temperature was maintained between 20 and 23° C. with a relative humidity maintained between 30% and 70%.
Compounds were administered orally 10 mL/kg, with a 30 minute pretreatment time. All compounds were tested in naïve animals. […] Each compound was dissolved in DMSO as a stock solution and mixed with Cremophor™ (1:1 v/v) before testing. The mixed solutions were diluted 1:4 with sterile water (the final concentration of DMSO/Cremophor™ reagent was 10%) immediately before administration to maximize the amount of compound in solution and improve the uniformity of any compound substance remaining in suspension. It is possible that some of the drug was in suspension at the time of administration. Each compound was initially tested in 5 mice at a dose of 300 mg/kg in the writhing test to assess their ability to alleviate abdominal pain. Based on the results of the initial test, the dose-response relationship for each active compound was determined by measuring the level of analgesia produced by at least 3 escalating doses of the test compound. The measurement of inhibition of writhing for acetaminophen and 5-hydroxy-7-methyloxindole were repeated using 6% Tween® 20 reagent as the vehicle. In this case, both compounds were clearly in suspension when administered to the animals.
A modified version of the standard abdominal irritant test was used to assess analgesia. Mice were habituated for 1 h in a transparent test box (5×5×10 inches) before any injections. Vehicle or test compound was administered p.o. (per os) 30 min prior to an intraperitoneal (i.p.) injection of 0.6% acetic acid (10 mL/kg) and the number of writhing responses (stretching of the hind limbs accompanied by a contraction of the abdominal muscles) to the acetic acid injection were counted over the subsequent 30 min period. The mice from each cage were randomly assigned to the dosing groups and the mice from each group were injected in a random order.
The one-way ANOVA was used to determine significant difference from the vehicle control treated animal. Dose response data for 5-hydroxy-7-methyloxindole was fit by non-linear regression analysis to a logit model to provide an estimate of ED50.

[2] = system: liver (acute liver toxicity); assay: plasma aminotransferase activity (ALT, AST) after intragastric dosing; format: in vivo, C57BL/6 mice; details: for AST / ALT: individual mice 1-8; for ALT, Mean / AST, Mean: mean of 8 mice; for hepatotoxicity, overall assessment (ALT, AST, pathohistology): mice, intragastric, summary statement
Protocol: This example was performed to determine if acute liver toxicity results from oral administration of 5-hydroxy-7-methyloxindole (CaRafe Drug Innovation, LLC) compared to the known acute liver toxicity produced by acetaminophen.
Acetaminophen was acquired from Sigma-Aldrich Corp. (St. Louis, Mo., USA); 5-hydroxy-7-methyloxindole was provided by CaRafe Drug Innovation, LLC (Norristown, Pa., USA) in the form of a powder. […] Based on the efficacy testing performed at Drexel University, 5-hydroxy-7-methyloxindole was suspended in 6% Tween® 20 reagent with vortexing. This procedure provided a crude suspension, but it precipitated after some time, therefore vortexing was repeated prior to each injection. Acetaminophen was prepared in the same vehicle (6% Tween® 20 reagent) using light magnetic stirring.
Ten-week old male C57BL/6 mice were used in all of the experiments. All protocols were approved before study initiation by the Ethics Committee of University of Zagreb School of Medicine (Zagreb, Croatia) and the study was conducted in accordance with accepted standards of humane animal care.
In all experiments, mice were fasted overnight and then allocated randomly to receive either acetaminophen or equimolar dose of 5-hydroxy-7-methyloxindole by the intragastric route. Food was returned 4 h after the treatment. The two experimental groups were:
(a) Lower-dose group: Mice were administered acetaminophen (300 mg/kg) or 5-hydroxy-7-methyloxindole (324 mg/kg). After 7 h, the mice were sacrificed and liver and blood samples were taken for the analysis.
Seven hours after receiving the second injection, mice were sacrificed and liver and blood samples were taken for analysis.
After collection, the blood samples were centrifuged, and plasma was separated and stored at −80° C. for 24 h. Activities of ALT (alanine transaminase) and of AST (aspartate transaminase) in plasma were determined using standard laboratory techniques in a clinical diagnostic laboratory.

[3] = 5-hydroxy-7-methyloxindole 324 mg/kg intragastric, 7 h

T1 sequence (P23219 24-599): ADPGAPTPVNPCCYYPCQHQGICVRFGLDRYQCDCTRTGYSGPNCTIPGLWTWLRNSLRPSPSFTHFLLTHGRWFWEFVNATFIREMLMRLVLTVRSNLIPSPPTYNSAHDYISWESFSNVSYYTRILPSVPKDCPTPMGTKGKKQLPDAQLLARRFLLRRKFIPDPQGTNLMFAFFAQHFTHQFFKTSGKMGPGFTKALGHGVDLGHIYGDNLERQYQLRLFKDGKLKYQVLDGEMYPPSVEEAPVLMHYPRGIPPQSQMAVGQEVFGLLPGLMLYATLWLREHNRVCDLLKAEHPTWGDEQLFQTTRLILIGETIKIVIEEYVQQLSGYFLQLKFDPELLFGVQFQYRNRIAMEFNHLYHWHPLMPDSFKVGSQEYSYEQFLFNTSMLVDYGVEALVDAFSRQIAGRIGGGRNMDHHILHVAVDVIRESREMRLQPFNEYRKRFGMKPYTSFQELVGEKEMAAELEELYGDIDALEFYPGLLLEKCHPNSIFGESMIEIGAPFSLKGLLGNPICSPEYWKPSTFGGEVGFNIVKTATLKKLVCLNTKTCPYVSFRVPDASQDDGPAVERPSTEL

Structure (SMILES): Cc1cc(O)cc2c1NC(=O)C2 [5-hydroxy-7-methyloxindole, 5-Hydroxy-7-methyloxindole]
- binding to COX1 receptor, in words (COX1 (h)): binds minimally, if at all
- inhibition at 10 µM (COX1 (h); test concentration 1 × 10^−5 M, human recombinant enzyme expressed in Sf9 cells): -29%
- inhibition of acetic acid-induced response (writhing) ([1]; C57/B16 mice, p.o. 30 min before i.p. 0.6% acetic acid, 10% DMSO/Cremophor vehicle, 30 to 300 mg/kg, FIG. 2, 3): robust and dose-related inhibition
- inhibition of acetic acid-induced response (writhing) ([1]; C57/B16 mice, p.o., 6% Tween 20 vehicle (suspension), 100 and 300 mg/kg, FIG. 5, 6): the highest dose produced an effect comparable to that observed with the DMSO/Cremophor™ vehicle
- ED50 ([1]; Mus musculus, po, C57/B16 mice, p.o., 10% DMSO/Cremophor vehicle, FIG. 4, read-out: ED50 (logit model fit of dose-response)): 76 mg/kg
- oral antinociceptive (analgesic) effect compared with acetaminophen ([1]; mouse model, oral, summary statement): equal to, and was slightly more potent than, acetaminophen
- ALT and AST levels, in words ([2]; higher-dose protocol: two cumulative injections 2.5 h apart, 7 h after second injection): normal or only minimally elevated levels of ALT and AST
- AST ([2]; 5-hydroxy-7-methyloxindole 324 mg/kg intragastric, 7 h after treatment): 80 U/L (2×) and 60 U/L (2×) and 120 U/L and 330 U/L and 170 U/L and 90 U/L
- ALT ([2]; 5-hydroxy-7-methyloxindole 324 mg/kg intragastric, 7 h after treatment, 6% Tween 20): 30 U/L (5×) and 20 U/L and 50 U/L (2×)
- AST ([2]; 5-hydroxy-7-methyloxindole 540 mg/kg total (two 270 mg/kg) intragastric, 7 h after second injection): 60 (2×) and 120 (3×) and 100 and 70 and 110
- ALT ([2]; 5-hydroxy-7-methyloxindole 540 mg/kg total (two 270 mg/kg, 2.5 h apart) intragastric, 7 h after second injection): 20 (3×) and 30 (3×) and 50 (2×)
- ALT and AST levels / liver damage, in words ([2]; lower-dose protocol: acetaminophen 300 mg/kg or 5-hydroxy-7-methyloxindole 324 mg/kg, 7 h): normal or only minimally elevated
- ALT, Mean [2, 3]: 34 U/L
- AST, Mean [2, 3]: 124 U/L
- AST, Mean ([2]; 5-hydroxy-7-methyloxindole 540 mg/kg total, 7 h after second injection): 95 U/L
- ALT, Mean ([2]; 5-hydroxy-7-methyloxindole 540 mg/kg total, 7 h after second injection, in U/L): 31.25
- hepatotoxicity, overall assessment (ALT, AST, pathohistology) ([2]; 6% Tween 20): devoid of hepatotoxic effect
- hepatotoxicity, overall assessment (ALT, AST, pathohistology) ([2]; 6% Tween 20, listed as 5-Hydroxy-7-methyloxindole): significantly less hepatotoxicity than acetaminophen
